According to ChEMBL document CHEMBL1201862, “PubChem BioAssay data set” (2004):
Active and inactive are the calls of the source.

What was measured:
Insulin-degrading enzyme = biological target: T1, Insulin-degrading enzyme (Homo sapiens, UniProt P14735); experiment: activators of recombinant IDE enzyme, dose response, counter-screen for IDE activator project, biochemical, fluorescence polarization (AID 588681)
T1 sequence (P14735 whole entry): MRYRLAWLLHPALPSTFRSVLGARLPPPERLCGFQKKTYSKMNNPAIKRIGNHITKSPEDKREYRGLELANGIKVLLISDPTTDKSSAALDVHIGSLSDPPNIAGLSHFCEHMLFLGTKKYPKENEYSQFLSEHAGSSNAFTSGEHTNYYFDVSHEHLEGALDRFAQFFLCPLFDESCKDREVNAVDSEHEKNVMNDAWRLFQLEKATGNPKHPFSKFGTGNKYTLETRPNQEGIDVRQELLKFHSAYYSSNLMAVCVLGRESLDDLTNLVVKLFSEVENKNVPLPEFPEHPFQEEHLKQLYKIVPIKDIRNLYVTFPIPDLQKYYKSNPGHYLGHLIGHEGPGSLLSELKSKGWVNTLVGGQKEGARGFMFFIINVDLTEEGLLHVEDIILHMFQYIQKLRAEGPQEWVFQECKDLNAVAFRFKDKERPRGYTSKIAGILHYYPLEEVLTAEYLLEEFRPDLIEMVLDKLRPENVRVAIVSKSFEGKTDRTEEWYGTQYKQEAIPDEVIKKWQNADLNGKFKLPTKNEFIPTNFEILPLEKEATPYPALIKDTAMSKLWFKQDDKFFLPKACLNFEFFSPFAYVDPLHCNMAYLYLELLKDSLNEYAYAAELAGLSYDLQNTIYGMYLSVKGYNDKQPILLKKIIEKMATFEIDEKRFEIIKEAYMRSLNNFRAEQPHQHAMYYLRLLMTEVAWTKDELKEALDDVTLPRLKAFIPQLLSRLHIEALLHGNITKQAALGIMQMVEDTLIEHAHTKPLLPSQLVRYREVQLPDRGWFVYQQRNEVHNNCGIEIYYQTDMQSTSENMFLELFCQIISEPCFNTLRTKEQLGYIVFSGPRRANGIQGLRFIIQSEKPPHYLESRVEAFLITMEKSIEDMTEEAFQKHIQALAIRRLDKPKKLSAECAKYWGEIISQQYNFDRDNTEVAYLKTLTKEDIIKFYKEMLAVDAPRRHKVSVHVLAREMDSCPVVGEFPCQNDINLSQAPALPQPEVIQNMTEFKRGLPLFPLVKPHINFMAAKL

HEK293 = experiment: HEK cell cytotoxicity by LDH release, dose response, cytotoxicity control for IDE activator project, fluorescence, HEK cells (AID 588440); type: functional, cell-based; details: Homo sapiens;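 also: cytotoxicity by LDH release measuring loss of membrane integrity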
ORF 73 = biological target: T2, ORF 73 (Human herpesvirus 8, UniProt O40947); experiment: inhibitors of C-LANA binding to LBS DNA, dose response, biochemical, fluorescence polarization, cherry-picked samples (AID 504725); design: species or system Human gammaherpesvirus 8;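 also: fluorescence polarization of a labeled DNA duplex reporting LANA DNA binding; potency is for inhibitors that block LANA binding to the DNA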
T2 sequence (O40947 whole entry): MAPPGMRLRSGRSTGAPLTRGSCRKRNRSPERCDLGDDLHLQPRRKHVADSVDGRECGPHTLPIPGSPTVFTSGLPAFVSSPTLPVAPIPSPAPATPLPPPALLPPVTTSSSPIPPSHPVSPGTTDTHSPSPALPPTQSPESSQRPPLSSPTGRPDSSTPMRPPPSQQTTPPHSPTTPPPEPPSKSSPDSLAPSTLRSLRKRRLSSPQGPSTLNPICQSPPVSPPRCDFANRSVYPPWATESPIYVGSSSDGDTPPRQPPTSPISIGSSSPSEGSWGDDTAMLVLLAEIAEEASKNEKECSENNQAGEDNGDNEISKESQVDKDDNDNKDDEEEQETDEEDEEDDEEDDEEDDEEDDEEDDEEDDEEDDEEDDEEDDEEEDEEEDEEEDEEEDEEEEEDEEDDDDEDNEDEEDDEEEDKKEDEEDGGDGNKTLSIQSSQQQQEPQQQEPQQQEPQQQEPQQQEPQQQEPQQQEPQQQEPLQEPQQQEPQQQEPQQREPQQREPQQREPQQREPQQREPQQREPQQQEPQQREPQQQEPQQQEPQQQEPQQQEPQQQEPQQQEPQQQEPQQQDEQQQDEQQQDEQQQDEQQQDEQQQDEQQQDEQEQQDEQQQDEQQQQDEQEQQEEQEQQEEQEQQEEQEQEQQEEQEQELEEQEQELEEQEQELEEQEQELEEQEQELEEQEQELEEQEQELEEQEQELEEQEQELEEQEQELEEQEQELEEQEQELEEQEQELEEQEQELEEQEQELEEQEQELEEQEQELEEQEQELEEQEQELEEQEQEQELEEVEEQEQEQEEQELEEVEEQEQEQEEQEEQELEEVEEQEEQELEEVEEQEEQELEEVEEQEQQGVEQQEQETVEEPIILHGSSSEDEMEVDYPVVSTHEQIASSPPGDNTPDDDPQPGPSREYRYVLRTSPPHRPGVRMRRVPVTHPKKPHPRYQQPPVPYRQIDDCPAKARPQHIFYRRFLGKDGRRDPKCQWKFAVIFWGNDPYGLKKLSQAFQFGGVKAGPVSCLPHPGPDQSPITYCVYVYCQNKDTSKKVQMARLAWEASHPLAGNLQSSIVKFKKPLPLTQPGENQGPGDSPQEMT

[1] = biological target: T3, Zinc finger protein mex-5 (Caenorhabditis elegans, UniProt Q9XUB2); experiment: MEX-5/TCR-2 RNA interaction inhibitors, dose response, biochemical, C. elegans, fluorescence polarization (AID 1960)
T3 sequence (Q9XUB2 whole entry): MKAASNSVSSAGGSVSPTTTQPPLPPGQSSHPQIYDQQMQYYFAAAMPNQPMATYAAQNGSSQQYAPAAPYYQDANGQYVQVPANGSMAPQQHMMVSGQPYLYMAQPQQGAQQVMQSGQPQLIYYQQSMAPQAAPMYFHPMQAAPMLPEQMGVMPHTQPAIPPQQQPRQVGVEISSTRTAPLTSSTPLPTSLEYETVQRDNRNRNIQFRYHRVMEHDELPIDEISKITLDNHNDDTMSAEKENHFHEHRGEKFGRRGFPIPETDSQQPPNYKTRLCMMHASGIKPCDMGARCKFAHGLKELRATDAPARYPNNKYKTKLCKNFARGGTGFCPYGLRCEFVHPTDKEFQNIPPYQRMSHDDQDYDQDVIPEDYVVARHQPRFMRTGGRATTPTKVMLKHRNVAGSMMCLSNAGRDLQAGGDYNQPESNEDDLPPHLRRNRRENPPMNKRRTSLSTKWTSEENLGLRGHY

[2] = biological target: T4, RNA-binding protein pos-1 (Caenorhabditis elegans, UniProt G5EF15); experiment: inhibitors of POS-1/mex-3 RNA binding, dose response, biochemical, fluorescence polarization (AID 1964);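 also: purified POS-1 fused to maltose binding protein made in E. coli; potency of compounds blocking POS-1 binding to fluorescent RNA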
T4 sequence (G5EF15 whole entry): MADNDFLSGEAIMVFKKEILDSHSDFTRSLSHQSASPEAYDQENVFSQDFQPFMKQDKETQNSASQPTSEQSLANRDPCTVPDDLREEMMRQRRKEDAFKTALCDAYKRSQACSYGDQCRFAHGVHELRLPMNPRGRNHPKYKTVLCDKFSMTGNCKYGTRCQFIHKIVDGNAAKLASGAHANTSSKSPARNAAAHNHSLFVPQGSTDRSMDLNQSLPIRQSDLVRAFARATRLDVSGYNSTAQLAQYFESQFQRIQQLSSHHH

In the case of O=C1CCN2C=Nc3cccc4ccc1c2c34, the EC50 (Insulin-degrading enzyme) is reported as > 54.7 µM (inactive), the IC50 (HEK293) is reported as > 89.2 µM (inactive) and the AC50 (ORF 73) is reported as 1.42 µM (active).
In the case of Oc1ccc2ccccc2c1/C=N/Nc1nnc(-c2ncc[nH]2)c2ccccc12, the EC50 [1] is reported as 2.45 µM (active) and the EC50 [2] is reported as 48.7 µM (inconclusive).
In the case of CC(C)C(C(=O)O)N1C(=O)/C(=C/C=C/c2ccco2)SC1=S (stereo not drawn), the AC50 (ORF 73) is reported as 45.6 µM (active), the EC50 [1] is reported as 19.4 µM (inconclusive) and the EC50 [2] is reported as 11 µM (inconclusive).
